Measured values from patent US12390472B2 (SUZHOU SINOVENT PHARMACEUTICALS CO., LTD., priority 2018, dated 2025).
Where two headings read alike, the source gives them in different places.

Legend:
[1] = tested on: Pfeiffer cells; test: Experiment on Pfeiffer cell proliferation (CellTiter-Glo); format: cell-based, human; details: Homo sapiens
[2] = molecular target: EZH2 enzyme complex (Homo sapiens (Human), UniProt Q15910); test: Test on EZH2 inhibitory activity (TR-FRET); format: biochemical; details: EZH2 enzyme complex 25 ng/uL, histone H3 peptide 4 uM, SAM 2 uM, 300 min; read-out: IC50 of EZH2 inhibition
[3] = molecular target: EZH2 (wt) (Homo sapiens (Human), UniProt Q15910); test: Test on EZH2 (wt) inhibitory activity ([3H]-SAM Flashplate); format: biochemical
Experimental: Protocols Compounds at different concentrations were dissolved in 100% DMSO and transferred to test plates, and the final concentration of DMSO was 1%. The enzyme solution and the mixture solution of peptide and [3H]-SAM were prepared with 1-fold reaction buffer. 10 uL of enzyme solution was added to the test plate and wells only added with 10 uL of reaction buffer were used as negative control wells. After incubation at room temperature for 15 min, the plate was added with 10 uL of the mixture solution of peptide and [3H]-SAM per well to initiate the reaction which lasts for 60 min at room temperature. The pre-cooled SAM was added to 1-fold reaction buffer to prepare a stop buffer. The reaction was stopped by adding 10 uL of stop buffer per well. 25 uL of solution was transferred from the reaction plate to Flashplate and incubated at room temperature for at least 1 h. The Flashplate was washed 3 times with dH2O+0.1% Tween-20. The plate was read by Microbeta.
(§1) Data were fitted by GraphPad Prism 5 software and inhibition rate was calculated according to equation (1) Inh %=(Max−Signal)/(Max−Min)×100 (1)
(§2) IC50 was calculated using equation (2) Y=Bottom+(Top−Bottom)/(1+10^((Log IC50−X)×Hill Slope))
(§3) Y: inhibition rate; X: concentration of the compound

[4] = molecular target: EZH2 (Y641N) (Homo sapiens (Human), UniProt Q15910, Y641N); test: Test on EZH2 (Y641N) inhibitory activity; format: biochemical
Experimental: (§4) Compounds at different concentrations were dissolved in 100% DMSO and transferred to test plates, and the final concentration of DMSO was 1%. Enzyme solution and substrate SAM solution were prepared with 1-fold reaction buffer (optimized Tris buffer). 5 uL of enzyme solution was added to the test plate and wells only added with 5 uL of reaction buffer were used as negative control wells. After incubation at room temperature for 15 min, the plate was added with 5 uL of substrate solution per well to initiate the reaction, and then incubated at room temperature for 60 min. 5 uL of receptor solution was added and the plate was incubated away from light at room temperature for 60 min. 10 uL of donor solution was added and the plate was incubated away from light at room temperature for 30 min. The endpoint values were read on the Envision and the IC50 was calculated.
as §1, §2, §3

[5] = tested on: subcutaneous xenograft tumor model of human B lymphocyte Pfeiffer; test: In vivo efficacy in subcutaneous xenograft tumor model of human B lymphocyte Pfeiffer; set-up: species or system mouse; details: SCID Beige mice, 100 mg/kg p.o. QD 21 days, tumor volume 21 days after administration
[6] = molecular target: EZH2 (Y641F) (Homo sapiens (Human), UniProt Q15910, Y641F); test: Test on EZH2 (Y641F) inhibitory activity; format: biochemical
Experimental: as §4, §1, §2, §3

[7] = In vivo pharmacokinetic properties in mice; set-up: species or system mouse; details: male ICR mice
Outline: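 Male ICR mice, n=3 per group, dosed once at 5 mg/kg IV in 10% DMSO/90% (20% Captisol) or 250 mg/kg intragastrically in 0.5% CMC-Na/0.1% Tween 80 (pH 3-4). EDTA-K2 plasma sampled from 5 min to 24 h; compound levels measured by LC-MS/MS.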

EZH2 enzyme complex, sequence (Q15910 whole entry): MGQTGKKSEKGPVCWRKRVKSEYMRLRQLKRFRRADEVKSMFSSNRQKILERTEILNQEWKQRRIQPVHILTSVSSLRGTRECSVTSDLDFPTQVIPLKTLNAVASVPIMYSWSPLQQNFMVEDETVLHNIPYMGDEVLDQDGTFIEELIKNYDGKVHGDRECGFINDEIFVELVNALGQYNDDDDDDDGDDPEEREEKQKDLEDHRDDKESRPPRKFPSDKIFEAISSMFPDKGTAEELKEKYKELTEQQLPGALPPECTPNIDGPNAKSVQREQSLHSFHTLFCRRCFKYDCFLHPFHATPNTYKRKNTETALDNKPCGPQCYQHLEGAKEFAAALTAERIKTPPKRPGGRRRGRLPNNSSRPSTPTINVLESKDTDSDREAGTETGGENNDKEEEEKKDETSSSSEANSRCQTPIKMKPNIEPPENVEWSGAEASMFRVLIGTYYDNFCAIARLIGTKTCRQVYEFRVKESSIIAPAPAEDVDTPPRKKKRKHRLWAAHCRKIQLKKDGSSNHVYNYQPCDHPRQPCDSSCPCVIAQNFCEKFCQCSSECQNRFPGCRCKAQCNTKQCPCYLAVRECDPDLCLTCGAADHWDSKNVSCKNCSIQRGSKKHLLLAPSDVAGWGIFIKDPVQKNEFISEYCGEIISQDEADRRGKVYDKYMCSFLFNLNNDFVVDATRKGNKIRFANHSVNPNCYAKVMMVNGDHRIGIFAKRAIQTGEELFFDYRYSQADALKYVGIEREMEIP
EZH2 enzyme complex, sequence (O75530 whole entry partner): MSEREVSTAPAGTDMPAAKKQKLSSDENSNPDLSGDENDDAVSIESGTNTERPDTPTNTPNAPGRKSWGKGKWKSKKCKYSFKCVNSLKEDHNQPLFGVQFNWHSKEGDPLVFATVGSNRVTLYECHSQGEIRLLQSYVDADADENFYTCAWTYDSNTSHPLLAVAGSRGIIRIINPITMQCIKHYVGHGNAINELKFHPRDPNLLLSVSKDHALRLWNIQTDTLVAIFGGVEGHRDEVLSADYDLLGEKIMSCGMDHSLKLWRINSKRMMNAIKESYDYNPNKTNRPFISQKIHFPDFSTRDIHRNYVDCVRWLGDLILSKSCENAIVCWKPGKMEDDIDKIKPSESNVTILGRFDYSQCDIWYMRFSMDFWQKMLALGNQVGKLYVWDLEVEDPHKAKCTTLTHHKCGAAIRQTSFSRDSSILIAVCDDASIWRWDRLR
EZH2 enzyme complex, sequence (Q15022 whole entry partner): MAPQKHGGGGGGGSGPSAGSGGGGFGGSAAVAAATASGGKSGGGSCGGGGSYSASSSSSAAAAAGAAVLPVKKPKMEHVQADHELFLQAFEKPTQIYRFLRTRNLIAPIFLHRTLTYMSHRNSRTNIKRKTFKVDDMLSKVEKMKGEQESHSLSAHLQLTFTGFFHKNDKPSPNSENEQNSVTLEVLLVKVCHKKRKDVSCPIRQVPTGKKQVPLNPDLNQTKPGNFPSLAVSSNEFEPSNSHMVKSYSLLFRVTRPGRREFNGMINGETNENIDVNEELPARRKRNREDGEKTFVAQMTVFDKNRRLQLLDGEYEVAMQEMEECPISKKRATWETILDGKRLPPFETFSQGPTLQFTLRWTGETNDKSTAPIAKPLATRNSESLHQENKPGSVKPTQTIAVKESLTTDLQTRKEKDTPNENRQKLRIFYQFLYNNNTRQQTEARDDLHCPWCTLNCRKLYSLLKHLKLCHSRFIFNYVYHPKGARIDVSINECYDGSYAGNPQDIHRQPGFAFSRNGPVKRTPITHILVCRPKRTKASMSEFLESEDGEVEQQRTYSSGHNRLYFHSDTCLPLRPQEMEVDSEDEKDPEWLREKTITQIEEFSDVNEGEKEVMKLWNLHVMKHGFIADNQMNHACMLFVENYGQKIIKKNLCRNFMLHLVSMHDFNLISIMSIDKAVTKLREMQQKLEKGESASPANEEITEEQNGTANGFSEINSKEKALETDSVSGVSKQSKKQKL
EZH2 (wt), sequence (Q15910 whole entry): as the sequence (Q15910 whole entry) above
EZH2 (wt), sequence (O75530 whole entry partner): as the sequence (O75530 whole entry partner) above
EZH2 (wt), sequence (Q15022 whole entry partner): as the sequence (Q15022 whole entry partner) above
EZH2 (Y641N), sequence (Q15910 whole entry Y641N): as the sequence (Q15910 whole entry) above, with Y641N counted along it
EZH2 (Y641N), sequence (O75530 whole entry partner): as the sequence (O75530 whole entry partner) above
EZH2 (Y641N), sequence (Q15022 whole entry partner): as the sequence (Q15022 whole entry partner) above
EZH2 (Y641F), sequence (Q15910 whole entry Y641F): as the sequence (Q15910 whole entry) above, with Y641F counted along it
EZH2 (Y641F), sequence (O75530 whole entry partner): as the sequence (O75530 whole entry partner) above
EZH2 (Y641F), sequence (Q15022 whole entry partner): as the sequence (Q15022 whole entry partner) above

CCN(c1cc(O[C@H]2C[C@H](N3C[C@@H](C)O[C@@H](C)C3)C2)cc(C(=O)NCc2c(C)cc(C)[nH]c2=O)c1C)C1CCC(F)(F)CC1 [Example 45, 3-((4,4-difluorocyclohexyl)(ethyl)amino)-N-((4,6-dimethyl-2-oxo-1,2-dihydropyridin-3-yl)methyl)-5-(trans-3-(cis-2,6-dimethylmorpholinyl)cyclobutoxy)-2-methylbenzamide] showed an IC50 ([1]; 168 h, Day 7, read-out: IC50 Pfeiffer proliferation Day 7) of 69 nM, an IC50 ([1]; 336 h, Day 14, read-out: IC50 Pfeiffer proliferation Day 14) of 9.7 nM and an IC50 [2] of 10 to 100 nM. The IC50 [3] was 2.3 nM, the IC50 [4] was 5.2 nM and the TGI [5] was 66.20%. The IC50 [6] was 3 nM, the F ([7]; intragastric 250 mg/kg vs intravenous 5 mg/kg) was 43.5% and the CL ([7]; single intravenous 5 mg/kg and intragastric 250 mg/kg study) was 37.0 ± 8.82 mL/min/lg. For the same molecule, the AUC(0-inf) ([7]; mouse, plasma, oral, single intravenous 5 mg/kg and intragastric 250 mg/kg study) was 50900 ng·h/mL, the Cmax ([7]; mouse, plasma, oral, single intravenous 5 mg/kg and intragastric 250 mg/kg study, read-out: Cmax) was 10500 ± 436 ng/mL and the Tmax ([7]; mouse, plasma, oral, single intravenous 5 mg/kg and intragastric 250 mg/kg study, read-out: Tmax) was 1 h. For the same molecule, the half-life ([7]; mouse, plasma, single intravenous 5 mg/kg and intragastric 250 mg/kg study) was 7.44 ± 2.75 h.
